Results published in PubChem BioAssay AID1963420 (Molecular Pharmacology Branch, DTP, NCI, 2024).

Tested on: 494315-158-R-J1-PDC complex spheroid growth, percent test/control
Test: Anticancer human tumor 494315-158-R-J1-PDC patient-derived soft tissue sarcoma cell line growth inhibition [Asc]
Details: for IC50: curve of first compound; for viability, T/C: stronger effect = lower value; active = viability on the fitted dose curve at most 10% of control; inactive = the rest
Method in brief: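 Complex solid-tumor spheroids incorporating human endothelial and mesenchymal stem cells received single agents or combinations over half-log dilution ranges anchored to clinical Cmax.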

[1] = second compound 0.01 µM, first compound 0.00949 µM
[2] = second compound 0.01 µM, first compound 0.03 µM
[3] = second compound 0.01 µM, first compound 0.0949 µM
[4] = second compound 0.01 µM, first compound 0.3 µM
[5] = second compound 0.01 µM, first compound 0.949 µM
[6] = second compound 0.01 µM, first compound 3 µM
[7] = second compound 0.0316 µM, first compound 0.00949 µM
[8] = second compound 0.0316 µM, first compound 0.03 µM
[9] = second compound 0.0316 µM, first compound 0.0949 µM
[10] = second compound 0.0316 µM, first compound 0.3 µM
[11] = second compound 0.0316 µM, first compound 0.949 µM
[12] = second compound 0.0316 µM, first compound 3 µM
[13] = second compound 0.1 µM, first compound 0.00949 µM
[14] = second compound 0.1 µM, first compound 0.03 µM
[15] = second compound 0.1 µM, first compound 0.0949 µM
[16] = second compound 0.1 µM, first compound 0.3 µM
[17] = second compound 0.1 µM, first compound 0.949 µM
[18] = second compound 0.1 µM, first compound 3 µM
[19] = second compound 0.316 µM, first compound 0.00949 µM
[20] = second compound 0.316 µM, first compound 0.03 µM
[21] = second compound 0.316 µM, first compound 0.0949 µM
[22] = second compound 0.316 µM, first compound 0.3 µM
[23] = second compound 0.316 µM, first compound 0.949 µM
[24] = second compound 0.316 µM, first compound 3 µM
[25] = second compound 1 µM, first compound 0.00949 µM
[26] = second compound 1 µM, first compound 0.03 µM
[27] = second compound 1 µM, first compound 0.0949 µM
[28] = second compound 1 µM, first compound 0.3 µM
[29] = second compound 1 µM, first compound 0.949 µM
[30] = second compound 1 µM, first compound 3 µM
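Note: compound exposure lasted seven days after spheroids formed for three days.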

CCN1C(C(=O)NC23CCC(C(=O)O)(CC2)CC3)C(c2cccc(Cl)c2F)C2(C(=O)Nc3cc(Cl)ccc32)C12CCCCC2 (stereo not given) + CNC(C)C(=O)NC1CN(S(=O)(=O)c2cccc(S(=O)(=O)N3CCC4CCC(C(=O)NC(c5ccccc5)c5ccccc5)N4C(=O)C(NC(=O)C(C)NC)C3)c2)CCC2CCC(C(=O)NC(c3ccccc3)c3ccccc3)N2C1=O
539 nM: IC50 (second compound 0.1 µM)
44.6 nM: IC50 (second compound 0.316 µM)
> 3000 nM: IC50 (second compound 0.01 µM) | IC50 (second compound 0.0316 µM)
< 9.49 nM: IC50 (second compound 1 µM)
inactive: viability, T/C [1] 66.2% | viability, T/C [2] 77.9% | viability, T/C [3] 66.8% | viability, T/C [4] 73.7% | viability, T/C [5] 67.5% | viability, T/C [6] 57.8% | viability, T/C [7] 57.3% | viability, T/C [8] 62.8% | viability, T/C [9] 61.5% | viability, T/C [10] 71% | viability, T/C [11] 60.6% | viability, T/C [12] 51.4% | viability, T/C [13] 51.4% | viability, T/C [14] 53.4% | viability, T/C [15] 56.5% | viability, T/C [16] 52% | viability, T/C [17] 47.1% | viability, T/C [18] 39.3% | viability, T/C [19] 53.9% | viability, T/C [20] 55.3% | viability, T/C [21] 49.8% | viability, T/C [22] 39.5% | viability, T/C [23] 41% | viability, T/C [24] 45.4% | viability, T/C [25] 39.6% | viability, T/C [26] 45.6% | viability, T/C [27] 44.5% | viability, T/C [28] 38.7% | viability, T/C [29] 35.7% | viability, T/C [30] 33%

C#Cc1c(F)ccc2cc(O)cc(-c3ncc4c(N5CC6CCC(C5)N6)nc(OCC56CCCN5CC(F)C6)nc4c3F)c12 (stereo not given) + Cc1c(S(C)(=O)=O)c(-c2cc(F)cc(N3CCN(c4ccc(NS(=O)(=O)c5ccc(NC(CCN6CCC(C(=O)OCCCP(=O)(O)O)CC6)CSc6ccccc6)c(S(=O)(=O)C(F)(F)F)c5)cc4)CC3)c2)c(-c2ccc(Cl)cc2)n1C(C)C
inactive: viability, T/C (second compound 0.1 µM, first compound 0.0316 µM) 82.8% | viability, T/C (second compound 0.1 µM, first compound 0.1 µM) 89.9% | viability, T/C (second compound 0.1 µM, first compound 0.316 µM) 77.2% | viability, T/C (second compound 0.1 µM, first compound 1 µM) 88.6% | viability, T/C (second compound 0.1 µM, first compound 3.16 µM) 80.4% | viability, T/C (second compound 0.1 µM, first compound 10 µM) 59.8% | viability, T/C (second compound 0.316 µM, first compound 0.0316 µM) 84.9% | viability, T/C (second compound 0.316 µM, first compound 0.1 µM) 74.8% | viability, T/C (second compound 0.316 µM, first compound 0.316 µM) 74.8% | viability, T/C (second compound 0.316 µM, first compound 1 µM) 72.1% | viability, T/C (second compound 0.316 µM, first compound 3.16 µM) 71.9% | viability, T/C (second compound 0.316 µM, first compound 10 µM) 50.7% | viability, T/C (second compound 1 µM, first compound 0.0316 µM) 61.6% | viability, T/C (second compound 1 µM, first compound 0.1 µM) 78.1% | viability, T/C (second compound 1 µM, first compound 0.316 µM) 72.8% | viability, T/C (second compound 1 µM, first compound 1 µM) 69.2% | viability, T/C (second compound 1 µM, first compound 3.16 µM) 71.1% | viability, T/C (second compound 1 µM, first compound 10 µM) 51.4% | viability, T/C (second compound 3.16 µM, first compound 0.0316 µM) 51.9% | viability, T/C (second compound 3.16 µM, first compound 0.1 µM) 57.5% | viability, T/C (second compound 3.16 µM, first compound 0.316 µM) 65.7% | viability, T/C (second compound 3.16 µM, first compound 1 µM) 58.9% | viability, T/C (second compound 3.16 µM, first compound 3.16 µM) 51.5% | viability, T/C (second compound 3.16 µM, first compound 10 µM) 37.6% | viability, T/C (second compound 10 µM, first compound 0.0316 µM) 74.8% | viability, T/C (second compound 10 µM, first compound 0.1 µM) 78.8% | viability, T/C (second compound 10 µM, first compound 0.316 µM) 88.2% | viability, T/C (second compound 10 µM, first compound 1 µM) 81.2% | viability, T/C (second compound 10 µM, first compound 3.16 µM) 81.3% | viability, T/C (second compound 10 µM, first compound 10 µM) 55.5%
4040 nM: IC50 (second compound 3.16 µM)
> 10000 nM: IC50 (second compound 0.1 µM) | IC50 (second compound 0.316 µM) | IC50 (second compound 1 µM) | IC50 (second compound 10 µM)

COc1c(OCCCN2CCOCC2)ccc2c3n(c(=NC(=O)c4cnc(N)nc4)nc12)CCN3 + CCN1C(C(=O)NC23CCC(C(=O)O)(CC2)CC3)C(c2cccc(Cl)c2F)C2(C(=O)Nc3cc(Cl)ccc32)C12CCCCC2
39 nM: IC50 (second compound 0.0949 µM)
46.2 nM: IC50 (second compound 3 µM)
45.8 nM: IC50 (second compound 0.03 µM)
43.6 nM: IC50 (second compound 0.3 µM)
inactive: viability, T/C (second compound 0.03 µM, first compound 0.00316 µM) 84% | viability, T/C (second compound 0.03 µM, first compound 0.01 µM) 80.5% | viability, T/C (second compound 0.03 µM, first compound 0.0316 µM) 58.5% | viability, T/C (second compound 0.03 µM, first compound 0.1 µM) 30.8% | viability, T/C (second compound 0.03 µM, first compound 0.316 µM) 20.5% | viability, T/C (second compound 0.03 µM, first compound 1 µM) 15.4% | viability, T/C (second compound 0.0949 µM, first compound 0.00316 µM) 78.7% | viability, T/C (second compound 0.0949 µM, first compound 0.01 µM) 73.7% | viability, T/C (second compound 0.0949 µM, first compound 0.0316 µM) 54% | viability, T/C (second compound 0.0949 µM, first compound 0.1 µM) 30.4% | viability, T/C (second compound 0.0949 µM, first compound 0.316 µM) 22% | viability, T/C (second compound 0.0949 µM, first compound 1 µM) 15.4% | viability, T/C (second compound 0.3 µM, first compound 0.00316 µM) 91.2% | viability, T/C (second compound 0.3 µM, first compound 0.01 µM) 90.4% | viability, T/C (second compound 0.3 µM, first compound 0.0316 µM) 49.9% | viability, T/C (second compound 0.3 µM, first compound 0.1 µM) 38% | viability, T/C (second compound 0.3 µM, first compound 0.316 µM) 22.3% | viability, T/C (second compound 0.3 µM, first compound 1 µM) 16.7% | viability, T/C (second compound 0.949 µM, first compound 0.00316 µM) 93.3% | viability, T/C (second compound 0.949 µM, first compound 0.01 µM) 81.6% | viability, T/C (second compound 0.949 µM, first compound 0.0316 µM) 50.6% | viability, T/C (second compound 0.949 µM, first compound 0.1 µM) 30.7% | viability, T/C (second compound 0.949 µM, first compound 0.316 µM) 19.2% | viability, T/C (second compound 0.949 µM, first compound 1 µM) 16.4% | viability, T/C (second compound 3 µM, first compound 0.00316 µM) 112% | viability, T/C (second compound 3 µM, first compound 0.01 µM) 86.5% | viability, T/C (second compound 3 µM, first compound 0.0316 µM) 59.6% | viability, T/C (second compound 3 µM, first compound 0.1 µM) 32.1% | viability, T/C (second compound 3 µM, first compound 0.316 µM) 22.6% | viability, T/C (second compound 3 µM, first compound 1 µM) 15.2%
35.6 nM: IC50 (second compound 0.949 µM)

Cc1nc(N2CCC3(CC2)COC(C)C3N)c(CO)nc1Sc1ccnc(N)c1Cl (stereo not given) + CNC(C)C(=O)NC1CN(S(=O)(=O)c2cccc(S(=O)(=O)N3CCC4CCC(C(=O)NC(c5ccccc5)c5ccccc5)N4C(=O)C(NC(=O)C(C)NC)C3)c2)CCC2CCC(C(=O)NC(c3ccccc3)c3ccccc3)N2C1=O
> 3000 nM: IC50 (second compound 0.01 µM) | IC50 (second compound 0.0316 µM)
941 nM: IC50 (second compound 0.1 µM)
< 9.49 nM: IC50 (second compound 0.316 µM) | IC50 (second compound 1 µM)
inactive: viability, T/C [1] 72.2% | viability, T/C [2] 59.6% | viability, T/C [3] 64.1% | viability, T/C [4] 60.8% | viability, T/C [5] 62.7% | viability, T/C [6] 52.1% | viability, T/C [7] 60.7% | viability, T/C [8] 69.7% | viability, T/C [9] 64.3% | viability, T/C [10] 55.6% | viability, T/C [11] 60.8% | viability, T/C [12] 51% | viability, T/C [13] 59.7% | viability, T/C [14] 55.6% | viability, T/C [15] 50.6% | viability, T/C [16] 49.1% | viability, T/C [17] 59.1% | viability, T/C [18] 43.7% | viability, T/C [19] 48.3% | viability, T/C [20] 48.6% | viability, T/C [21] 47.2% | viability, T/C [22] 37.1% | viability, T/C [23] 42.8% | viability, T/C [24] 49.5% | viability, T/C [25] 38.7% | viability, T/C [26] 44.2% | viability, T/C [27] 44.3% | viability, T/C [28] 36.8% | viability, T/C [29] 40% | viability, T/C [30] 39.2%
